Laboratory results: patent publication US11642335B2, “Chemical synthesis of clopidogrel active metabolites and disulfide conjugate prodrugs” (Board of Regents, The University of Texas System, priority 2019, dated 2023)
Entries after “also recorded” stand apart in the source; their conditions may differ.

Key:
[1] = patients treated with CPG; cited from earlier work
[2] = target: P2Y12R (Homo sapiens, UniProt Q9H244); conditions: biosynthesized H2, relative to H4; cited from earlier work
[3] = test system: FeCl3 carotid artery injury-induced thrombosis; assay: FeCl3 carotid artery injury-induced thrombosis mouse model (in vivo antiplatelet test); conditions: for occlusion time of thrombosis: tail vein administration of 1 mg/kg, compared to vehicle (negative control) and CPG (positive control), FIG. 14, 1 mg/kg
From the text: Referring now to FIGS. 14-18, In vivo antiplatelet test of synthetic H3 and H4 in a FeCl3 carotid artery injury-induced thrombosis mouse model.

[4] = test system: antiplatelet activity; conditions: cited from earlier work

Sequence of P2Y12R (Q9H244 whole entry): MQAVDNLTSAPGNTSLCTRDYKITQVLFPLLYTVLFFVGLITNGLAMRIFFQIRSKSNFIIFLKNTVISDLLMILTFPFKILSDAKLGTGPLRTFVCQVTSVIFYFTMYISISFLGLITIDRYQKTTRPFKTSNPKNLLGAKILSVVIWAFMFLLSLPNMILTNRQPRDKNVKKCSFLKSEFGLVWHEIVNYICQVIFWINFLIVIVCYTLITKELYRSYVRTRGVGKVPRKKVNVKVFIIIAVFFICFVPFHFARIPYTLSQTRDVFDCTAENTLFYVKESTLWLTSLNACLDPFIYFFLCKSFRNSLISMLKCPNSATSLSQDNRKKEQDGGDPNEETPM

SMILES	detection as circulating metabolite in patients' plasma [1]	potency against P2Y12R in vitro [2]	occlusion time of thrombosis [3]	stereospecific potency in vivo ([3]; synthetic metabolite, mice)	activity in in vitro pharmacological studies (antiplatelet) [4]
COC(=O)[C@H](c1ccccc1Cl)N1CC[C@@H](S)/C(=C\C(=O)O)C1 [H2]	not detected	similarly potent as H4	–	–	–
COC(=O)[C@H](c1ccccc1Cl)N1CC[C@@H](S)/C(=C\C(=O)O)C1 [H3]	detected as circulating metabolites	–	ineffective	–	–
COC(=O)[C@H](c1ccccc1Cl)N1CC[C@@H](S)/C(=C\C(=O)O)C1 [H4]	detected as circulating metabolites	–	significantly prolong the occlusion time of thrombosis	stereospecific potency in mice; also recorded: stereospecific potency in vivo	active
